# Results taken from publication PMC3612894 (Journal of medicinal chemistry, 2013).
# System: T. cruzi
# Assay: T. cruzi in vitro inhibition assay
# Type: cell-based, Trypanosoma cruzi
# Settings: host cells NIH 3T3
row,SMILES,selectivity over host cells
1,"Clc1ccc(COc2cccc(Cn3ccnc3)c2)cc1 [Compound 4j, 1-(3-((4-chlorobenzyl)oxy)benzyl)-1H-imidazole]",greater than 160 fold
2,"Cc1cc(Oc2cccc(Cn3ccnc3)c2)cc(C)c1Cl [Compound 4c, 1-(3-(4-chloro-3,5-dimethylphenoxy)benzyl)-1H-imidazole]",greater than 160 fold
